Results published in patent US10080739B2, “Aryl imidazoles and their use as anti-cancer agents” (Aptose Biosciences Inc., priority 2003, dated 2018).
Entries after “also recorded” stand apart in the source; their conditions may differ.

Key:
[1] = tested on: HT29 colon adenocarcinoma cells; assay: morphological changes (vacuoles), HT29; type: cell-based, human; details: treatment for 24 hours
From the text: These vacuoles are not formed in DMSO- or doxorubicin-treated cells. Moreover, the nuclear membrane is no longer evident in the phase-contrast images of cells treated with compound 45, even though the nucleus is still intact, as shown by DAPI staining.

MAPKAP-K2 = biological target: T1, MAPKAP-K2 (Homo sapiens, UniProt P49137); assay: kinase profiler, MAPKAP-K2; type: biochemical; details: 10 μM compound, 100 μM ATP, mean of % control
T1 construct: purchased Upstate Biotechnologies (kinase profiler service)
Experimental: (§1) Compound 45 was tested for its ability to function as a kinase inhibitor using the kinase profiler service from Upstate Biotechnologies. The general protocol employed is as follows: recombinant kinases were incubated with specific substrates, 10 mM MgAcetate, and [γ-^33P-ATP]. The reaction was initiated by the addition of MgATP mix. After incubation at room temperature for 40 minutes, the reaction was stopped by the addition of 5 μl of a 3% phosphoric acid solution. 10 μl of the reaction was then spotted on to a P30 filtermat and washed 3 times for 5 min. in 75 mM phosphoric acid and once in methanol prior to drying and scintillation counting. Each reaction was performed in duplicate with 100 μM ATP −/+10 μM compound 45. Results are presented in Table IV and are expressed as the mean of % control (no compound). PI 3-kinase-γ (PI3K-γ) activity was determined with the PIProfiler™ assay, which measures the binding of the GRP1 pleckstrin homology (PH) domain to PIP3, the product of PI3K acting on its physiological substrate PIP2.

CDK7/cyclinH/MAT1 = biological target: T2, CDK7/cyclinH/MAT1 (Homo sapiens, UniProt P50613); assay: kinase profiler, CDK7/cyclinH/MAT1; type: biochemical; details: 10 μM compound, 100 μM ATP, mean of % control
T2 construct: purchased Upstate Biotechnologies (kinase profiler service)
T2 sequence (P50613 whole entry): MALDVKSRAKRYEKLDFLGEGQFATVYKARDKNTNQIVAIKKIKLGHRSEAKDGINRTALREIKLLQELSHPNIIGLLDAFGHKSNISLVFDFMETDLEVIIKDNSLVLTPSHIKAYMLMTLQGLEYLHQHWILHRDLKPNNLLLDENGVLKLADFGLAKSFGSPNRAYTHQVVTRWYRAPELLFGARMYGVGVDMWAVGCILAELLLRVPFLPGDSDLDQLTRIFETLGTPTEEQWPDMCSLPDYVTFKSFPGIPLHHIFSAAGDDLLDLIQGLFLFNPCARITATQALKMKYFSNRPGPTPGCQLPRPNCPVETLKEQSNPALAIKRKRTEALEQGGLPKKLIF
T2 sequence (P51946 whole entry partner): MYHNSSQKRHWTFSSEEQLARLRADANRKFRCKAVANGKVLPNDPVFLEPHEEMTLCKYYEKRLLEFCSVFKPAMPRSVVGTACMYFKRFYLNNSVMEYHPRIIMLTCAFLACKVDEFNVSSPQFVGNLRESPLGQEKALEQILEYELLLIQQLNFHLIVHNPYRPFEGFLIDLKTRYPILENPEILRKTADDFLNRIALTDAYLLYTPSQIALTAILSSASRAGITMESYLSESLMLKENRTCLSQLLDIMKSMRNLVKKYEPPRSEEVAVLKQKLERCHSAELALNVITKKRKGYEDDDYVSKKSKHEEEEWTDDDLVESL
T2 sequence (P51948 whole entry partner): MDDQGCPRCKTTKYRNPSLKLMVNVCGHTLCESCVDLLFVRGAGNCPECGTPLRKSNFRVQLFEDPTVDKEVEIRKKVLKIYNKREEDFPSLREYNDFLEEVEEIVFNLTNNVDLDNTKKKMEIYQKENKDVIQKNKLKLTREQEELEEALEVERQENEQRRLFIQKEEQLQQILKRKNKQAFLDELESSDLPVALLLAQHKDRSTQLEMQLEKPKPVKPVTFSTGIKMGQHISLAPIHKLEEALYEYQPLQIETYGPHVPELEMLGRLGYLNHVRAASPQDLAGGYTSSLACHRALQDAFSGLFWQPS
Experimental: as §1

Aurora-A = biological target: T3, Aurora-A (Homo sapiens, UniProt O14965); assay: kinase profiler, Aurora-A; type: biochemical; details: 10 μM compound, 100 μM ATP, mean of % control
T3 construct: purchased Upstate Biotechnologies (kinase profiler service)
T3 sequence (O14965 whole entry): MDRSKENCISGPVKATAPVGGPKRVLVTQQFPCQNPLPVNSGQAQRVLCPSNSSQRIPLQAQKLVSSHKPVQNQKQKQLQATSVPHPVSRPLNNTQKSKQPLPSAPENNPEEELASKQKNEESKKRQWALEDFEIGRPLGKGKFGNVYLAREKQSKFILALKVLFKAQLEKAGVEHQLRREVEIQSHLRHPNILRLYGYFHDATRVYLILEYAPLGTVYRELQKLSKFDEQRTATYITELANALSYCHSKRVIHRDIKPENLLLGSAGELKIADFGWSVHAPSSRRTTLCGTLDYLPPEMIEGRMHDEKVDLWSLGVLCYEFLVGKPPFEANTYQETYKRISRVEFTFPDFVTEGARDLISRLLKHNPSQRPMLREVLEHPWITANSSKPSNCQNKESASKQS
Experimental: as §1

renal cancer cell lines = assay: NCI/DTP screen, renal cancer cell lines; type: cell-based; details: Homo sapiens; renal cancer cell lines (FIG. 10B)
Experimental: The twenty-three compounds of Formula I shown below were evaluated for their antiproliferative effects in a panel of 60 human cancer cell lines as part of the in vitro anticancer screening services provided by the DTP (Developmental Therapeutics Program) of the US National Cancer Institute (NCI) U.S. National Cancer Institute (NCI) of the National Institutes of Health (NIH) in […], Md.
The NCI conducts a standard 48/72 hour 60 cell line assay and an in vitro time course assay as described in Alley et al. (Cancer Res (1988) 48:589). In the standard 60 cell line assay, a minimum of 5 concentrations of the test compound are tested at 10-fold dilutions against 60 cell lines and cell growth is assayed at 48 and 72 hours using a sulphorhodamine B assay. For the time course analysis, tumour cells are treated with the test compound at various time points, then washed and grown in medium free of the test compound until the end of the experiment at 144 hrs. This assay employs 20% FBS to better approximate the minimum c×t (concentrations and times) test compound exposure conditions that are required to achieve activity in vivo. Cell growth is quantified by an MTT assay (similar to the XTT assay described above) and the concentration of the test compound required for growth inhibition is determined. […]

[2] = tested on: HT-29 colon adenocarcinoma cells; assay: cell cycle analysis by flow cytometry; type: cell-based, human; details: HT-29 cells starved 3 days, 15 μM or 25 μM for 24 or 48 hours, 10% serum
Experimental: The effect of treatment with compound 45 on cell cycle progression in HT-29 colon adenocarcinoma cells was examined by flow cytometry (FIG. 22). Values were determined by gate analysis of flow cytometric plots and are presented in FIG. 22 as a percentage of the total cell population, after eliminating doubles. Apoptotic events inferred by the surface area preceding G1 phase. Cells were starved for 3 days, and treated with 15 μM or 25 μM compound 45 for 24 or 48 hours in the presence of 10% serum, followed by flow cytometric analysis.

IGF-1R = biological target: T4, IGF-1R (Homo sapiens, UniProt P08069); assay: kinase profiler, IGF-1R; type: biochemical; details: 10 μM compound, 100 μM ATP, mean of % control
T4 construct: purchased Upstate Biotechnologies (kinase profiler service)
Experimental: as §1

CDK2/cyclinA = biological target: T5, CDK2/cyclinA (Homo sapiens, UniProt P24941); assay: kinase profiler, CDK2/cyclinA; type: biochemical; details: 10 μM compound, 100 μM ATP, mean of % control
T5 construct: purchased Upstate Biotechnologies (kinase profiler service)
Experimental: as §1

PKCμ = biological target: T6, PKCμ (Homo sapiens, UniProt Q15139); assay: kinase profiler, PKCμ; type: biochemical; details: 10 μM compound, 100 μM ATP, mean of % control
T6 construct: purchased Upstate Biotechnologies (kinase profiler service)
Experimental: as §1

Rsk1 = biological target: T7, Rsk1 (Homo sapiens, UniProt Q15418); assay: kinase profiler, Rsk1; type: biochemical; details: 10 μM compound, 100 μM ATP, mean of % control
T7 construct: purchased Upstate Biotechnologies (kinase profiler service)
Experimental: as §1

NEK2 = biological target: T8, NEK2 (Homo sapiens, UniProt P51955); assay: kinase profiler, NEK2; type: biochemical; details: 10 μM compound, 100 μM ATP, mean of % control
T8 construct: purchased Upstate Biotechnologies (kinase profiler service)
Experimental: as §1

MAPK2 = biological target: T9, MAPK2 (Homo sapiens, UniProt P28482); assay: kinase profiler, MAPK2; type: biochemical; details: 10 μM compound, 100 μM ATP, mean of % control
T9 construct: purchased Upstate Biotechnologies (kinase profiler service)
T9 sequence (P28482 whole entry): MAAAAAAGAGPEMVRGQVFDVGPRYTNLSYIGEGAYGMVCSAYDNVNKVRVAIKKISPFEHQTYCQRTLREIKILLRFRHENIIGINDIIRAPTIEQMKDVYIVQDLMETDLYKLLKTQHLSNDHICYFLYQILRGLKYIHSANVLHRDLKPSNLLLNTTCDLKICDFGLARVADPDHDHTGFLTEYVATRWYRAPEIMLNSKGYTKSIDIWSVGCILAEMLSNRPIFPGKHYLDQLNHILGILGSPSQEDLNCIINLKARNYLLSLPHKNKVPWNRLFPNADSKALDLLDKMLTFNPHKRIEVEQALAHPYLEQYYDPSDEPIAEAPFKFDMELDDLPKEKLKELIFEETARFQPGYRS
Experimental: as §1

TAK1 = biological target: T10, TAK1 (Homo sapiens, UniProt O43318); assay: kinase profiler, TAK1; type: biochemical; details: 10 μM compound, 100 μM ATP, mean of % control
T10 construct: purchased Upstate Biotechnologies (kinase profiler service)
Experimental: as §1

SAPK2b = biological target: T11, SAPK2b (Homo sapiens, UniProt Q15759); assay: kinase profiler, SAPK2b; type: biochemical; details: 10 μM compound, 100 μM ATP, mean of % control
T11 construct: purchased Upstate Biotechnologies (kinase profiler service)
T11 sequence (Q15759 whole entry): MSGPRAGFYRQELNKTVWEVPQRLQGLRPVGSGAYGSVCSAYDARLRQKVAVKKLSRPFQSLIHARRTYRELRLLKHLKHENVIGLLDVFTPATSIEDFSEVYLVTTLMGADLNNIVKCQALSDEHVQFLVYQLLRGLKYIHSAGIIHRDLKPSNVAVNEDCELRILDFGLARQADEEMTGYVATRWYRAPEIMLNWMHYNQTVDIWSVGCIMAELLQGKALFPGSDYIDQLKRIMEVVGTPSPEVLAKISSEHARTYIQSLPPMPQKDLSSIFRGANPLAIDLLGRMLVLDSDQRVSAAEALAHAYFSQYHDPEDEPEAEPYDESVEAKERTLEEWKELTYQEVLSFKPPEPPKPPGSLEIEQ
Experimental: as §1

FGFR3 = biological target: T12, FGFR3 (Homo sapiens, UniProt P22607); assay: kinase profiler, FGFR3; type: biochemical; details: 10 μM compound, 100 μM ATP, mean of % control
T12 construct: purchased Upstate Biotechnologies (kinase profiler service)
Experimental: as §1

Met = biological target: T13, Met (Homo sapiens, UniProt P08581); assay: kinase profiler, Met; type: biochemical; details: 10 μM compound, 100 μM ATP, mean of % control
T13 construct: purchased Upstate Biotechnologies (kinase profiler service)
Experimental: as §1

Ros = biological target: T14, Ros (Homo sapiens, UniProt P08922); assay: kinase profiler, Ros; type: biochemical; details: 10 μM compound, 100 μM ATP, mean of % control
T14 construct: purchased Upstate Biotechnologies (kinase profiler service)
T14 sequence (P08922 28-2347): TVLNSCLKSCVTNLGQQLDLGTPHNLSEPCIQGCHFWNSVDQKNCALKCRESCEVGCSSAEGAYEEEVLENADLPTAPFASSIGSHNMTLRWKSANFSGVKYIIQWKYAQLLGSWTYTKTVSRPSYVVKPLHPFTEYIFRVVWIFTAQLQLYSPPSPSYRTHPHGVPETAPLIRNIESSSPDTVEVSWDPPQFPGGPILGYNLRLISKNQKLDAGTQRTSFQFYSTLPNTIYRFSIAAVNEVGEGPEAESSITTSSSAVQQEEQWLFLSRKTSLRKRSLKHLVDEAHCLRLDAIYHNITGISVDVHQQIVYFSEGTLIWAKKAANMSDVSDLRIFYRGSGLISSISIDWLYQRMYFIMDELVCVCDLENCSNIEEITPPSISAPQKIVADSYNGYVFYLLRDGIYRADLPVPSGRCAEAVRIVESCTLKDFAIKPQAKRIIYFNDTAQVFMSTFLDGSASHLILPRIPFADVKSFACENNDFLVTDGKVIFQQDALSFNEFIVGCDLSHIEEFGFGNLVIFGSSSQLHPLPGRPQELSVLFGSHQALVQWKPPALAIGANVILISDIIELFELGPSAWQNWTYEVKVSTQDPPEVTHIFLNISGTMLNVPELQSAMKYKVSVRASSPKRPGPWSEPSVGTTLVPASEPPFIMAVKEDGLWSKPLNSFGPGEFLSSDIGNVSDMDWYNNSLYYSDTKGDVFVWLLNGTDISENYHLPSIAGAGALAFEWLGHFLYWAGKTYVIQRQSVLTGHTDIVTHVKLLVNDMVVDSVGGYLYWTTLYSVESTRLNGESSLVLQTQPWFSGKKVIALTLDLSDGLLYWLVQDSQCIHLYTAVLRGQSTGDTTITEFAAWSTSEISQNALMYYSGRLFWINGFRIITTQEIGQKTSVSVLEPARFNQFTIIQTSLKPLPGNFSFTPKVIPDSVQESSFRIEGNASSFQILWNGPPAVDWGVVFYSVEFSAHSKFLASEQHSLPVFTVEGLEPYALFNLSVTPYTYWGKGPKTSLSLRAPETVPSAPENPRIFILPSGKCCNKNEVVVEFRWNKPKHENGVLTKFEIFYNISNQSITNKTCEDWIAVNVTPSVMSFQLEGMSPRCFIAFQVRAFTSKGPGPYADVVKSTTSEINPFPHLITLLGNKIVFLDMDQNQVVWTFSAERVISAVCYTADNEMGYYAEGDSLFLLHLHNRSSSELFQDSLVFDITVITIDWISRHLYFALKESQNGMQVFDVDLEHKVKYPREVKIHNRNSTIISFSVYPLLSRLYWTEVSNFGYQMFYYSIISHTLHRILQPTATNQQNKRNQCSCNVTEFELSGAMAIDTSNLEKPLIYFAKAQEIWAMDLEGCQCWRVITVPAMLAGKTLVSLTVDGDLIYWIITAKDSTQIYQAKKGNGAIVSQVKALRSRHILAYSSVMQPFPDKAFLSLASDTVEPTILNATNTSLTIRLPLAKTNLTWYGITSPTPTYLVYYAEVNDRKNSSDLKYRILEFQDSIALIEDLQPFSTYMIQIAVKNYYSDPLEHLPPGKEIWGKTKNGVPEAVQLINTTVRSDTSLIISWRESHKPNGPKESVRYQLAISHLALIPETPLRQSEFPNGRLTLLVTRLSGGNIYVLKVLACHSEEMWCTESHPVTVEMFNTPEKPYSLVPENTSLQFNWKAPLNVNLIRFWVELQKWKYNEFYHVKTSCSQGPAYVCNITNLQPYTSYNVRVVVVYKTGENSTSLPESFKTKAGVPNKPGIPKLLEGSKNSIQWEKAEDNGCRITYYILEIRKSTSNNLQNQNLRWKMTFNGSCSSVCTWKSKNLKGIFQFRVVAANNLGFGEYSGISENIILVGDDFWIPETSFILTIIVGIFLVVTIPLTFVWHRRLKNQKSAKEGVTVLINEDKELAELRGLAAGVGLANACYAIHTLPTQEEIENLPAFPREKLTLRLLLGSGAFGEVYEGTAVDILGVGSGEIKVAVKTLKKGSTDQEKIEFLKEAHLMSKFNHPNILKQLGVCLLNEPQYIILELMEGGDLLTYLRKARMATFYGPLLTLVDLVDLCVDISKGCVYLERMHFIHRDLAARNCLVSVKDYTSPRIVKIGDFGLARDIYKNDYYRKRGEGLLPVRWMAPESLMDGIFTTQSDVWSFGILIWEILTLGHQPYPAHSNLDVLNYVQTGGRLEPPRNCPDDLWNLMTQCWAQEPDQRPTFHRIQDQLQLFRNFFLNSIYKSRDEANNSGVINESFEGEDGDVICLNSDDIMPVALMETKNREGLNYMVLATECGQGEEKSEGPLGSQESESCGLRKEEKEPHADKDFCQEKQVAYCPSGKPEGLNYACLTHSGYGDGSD
Experimental: as §1

MKK6 = biological target: T15, MKK6 (Homo sapiens, UniProt P52564); assay: kinase profiler, MKK6; type: biochemical; details: 10 μM compound, 100 μM ATP, mean of % control
T15 construct: purchased Upstate Biotechnologies (kinase profiler service)
T15 sequence (P52564 whole entry): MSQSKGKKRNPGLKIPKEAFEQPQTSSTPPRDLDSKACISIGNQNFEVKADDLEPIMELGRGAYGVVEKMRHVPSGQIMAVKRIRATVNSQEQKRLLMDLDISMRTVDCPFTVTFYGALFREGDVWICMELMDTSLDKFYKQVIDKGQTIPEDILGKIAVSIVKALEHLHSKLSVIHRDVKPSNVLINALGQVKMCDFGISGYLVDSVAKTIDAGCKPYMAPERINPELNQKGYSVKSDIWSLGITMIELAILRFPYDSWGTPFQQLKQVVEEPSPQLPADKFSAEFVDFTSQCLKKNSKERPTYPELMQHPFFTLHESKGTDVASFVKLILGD
Experimental: as §1

Brc1ccc2[nH]cc(-c3nc4c5ccccc5c5ccccc5c4[nH]3)c2c1 [Compound 45]
formation of vacuoles [1]: formation of large vacuoles within the cytoplasm
activity at 10 µM (MAPKAP-K2): 119%
activity at 10 µM (CDK7/cyclinH/MAT1): 95%
activity at 10 µM (Aurora-A): 54%
GI50 (renal cancer cell lines): 1300 nM
effect on cell cycle progression [2]: increase of cells in the G1 phase and a decrease in the S and G2/M phases; also recorded: partial arrest in the G0/G1 phase
activity at 10 µM (IGF-1R): 80%
activity at 10 µM (CDK2/cyclinA): 95%
activity at 10 µM (PKCμ): 90%
activity at 10 µM (Rsk1): 183%
activity at 10 µM (NEK2): 90%
activity at 10 µM (MAPK2): 99%
activity at 10 µM (TAK1): 104%
activity at 10 µM (SAPK2b): 80%
activity at 10 µM (FGFR3): 82%
activity at 10 µM (Met): 129%
activity at 10 µM (Ros): 107%
activity at 10 µM (MKK6): 86%
